Assays:
[1] = tested on: SHR (Spontaneously hypertensive rat); test: Systolic blood pressure of SHR by tail cuff method; assay type: in vivo; settings: 5 hours after administration, HCTZ 10 mg/kg, pratosartan 3 mg/kg, mean ± SD, in mmHg (unit assumed); for systolic blood pressure level, Day 1: before drug 220-222
Procedure: The systolic blood pressure level of male 20 weeks old SHR (Spontaneously hypertensive rat, SPF grade) was measured by tail cuff methods, and animals were randomized into 4 groups to balance the systolic blood pressure level among groups. 0.5% methylcellulose (MC) or drugs suspended in 0.5% MC were administered for 28 days, and systolic blood pressure levels after 5 hours of drug administration were measured at day 1, 7, 14 and 28. In table 3 , experimental groups, subject substances, doses, and the measured blood pressure levels (mean±standard deviation) were shown in table 4. Further, the subject substances were hydrochlorothiazide (HCTZ), pratosartan, and co-administration of HCTZ and pratosartan. The dose of HCTZ and pratosartan were 10 mg/kg and 3 mg/kg, respectively, and the dosage volume was 2 mL/kg in each case.

male 6 weeks old SD rats = test: Uricosuric action estimated by delayed disappearance of blood phenol red; assay type: in vivo, rat; settings: for The enhance rate of uric acid excretion (%): phenol red 75 mg/kg i.v. 3 h later, serum 1 h after, control group = 100%, mean ± SD
Procedure: The uricosuric action is estimated by the delayed disappearance of blood phenol red level as a marker. Namely, male 6 weeks old SD rats were orally administered 0.5% methylcellulose (MC) or pratosartan (30 mg/kg or 100 mg/kg), and after three hours, phenol red solution (75 mg/kg) was intravenously adirninstered. One hour after phenol red administration, blood sample was collected from abdominal aorta under ether anesthesia, and the amount of phenol red in serum was determined. The amount of phenol red level in control group was taken as 100%, and the delayed rate of phenol red disappearance from blood in pratosartan treated group was estimated as the enhance rate of uric acid excretion (%). In table 1, experimental groups, subject substances, doses and the enhance rates of uric acid excretion (mean±standard deviation).

[2] = tested on: patients with mild or moderate essential hypertension; test: Serum cholesterol level in patients with essential hypertension; assay type: in vivo, human
Procedure: 107 patients with mild or moderate essential hypertension were administered at dose of from 40 to 160 mg/day was administered every four weeks by degrees if the hypotensive action was insufficient. Serum cholesterol level before pratosartan administration was compared with that of the last day during pratosartan administration in each patient. Also, a part of patients were other co-administered pratosartan and conventionally known hypolipidemic drugs. General names of co-administered drugs, doses and number of patients were as follows. Namely, the list was pravastatin (10 mg/day, 3 patients), simvastatin (5 mg/day, 3 patients), cerivastatin (0.15 mg/day, 2 patients), atorvastatin (5 mg/day, 1 patients), fenofibrate (150 mg/day, 1 patient) and probucol (500 mg/day, 1 patient). The results when the patients were classified in the presence and absence of other co-administered drugs, were shown in table 6 and 7. The result in the presence of co-administered drugs was shown in table 6, and the result in the absence of co-administered drug was shown in […]. Further, data were shown mean±standard deviation.

[3] = tested on: patients with mild and moderate essential hypertension complicated with hyperuricemia; test: Serum uric acid level in hypertensive patients complicated with hyperuricemia; assay type: in vivo, human; settings: 17 patients, 40 to 160 mg/day
Procedure: Studies were carried out intended for mild and moderate essential hypertension. 17 patients complicated with hyperuricemia were administered pratosartan, and serum uric acid levels (mg/dL) before drug administration and the last day during administration were determined. Further, the dose of from 40 to 160 mg/day was administered every four weeks by degrees if the hypotensive action was insufficient.

With NS(=O)(=O)c1cc2c(cc1Cl)NCNS2(=O)=O [HCTZ, hydrochlorothiazide, reference compound] the “systolic blood pressure level, Day 1” value [1] was 220 ± 2, the “systolic blood pressure level, Day 7” value [1] was 219 ± 3 and the “systolic blood pressure level, Day 14” value [1] was 219 ± 4. The “systolic blood pressure level, Day 28” value [1] was 214 ± 2.

In the case of CCCc1nc2c(n1Cc1ccc(-c3ccccc3-c3nnn[nH]3)cc1)C(=O)CCCC2 [pratosartan, 2-propyl-3-{[2′-(1H-tetrazole-5-yl)biphenyl-4-yl]methyl}-5,6,7,8-tetrahydrocyclohepta imidazole-4-(3H)-one], the “The enhance rate of uric acid excretion (%)” value (male 6 weeks old SD rats; 30 mg/kg oral) is reported as 105 ± 10%, the “The enhance rate of uric acid excretion (%)” value (male 6 weeks old SD rats; 100 mg/kg oral) is reported as 172 ± 17% and the “excretion of uric acid” value (male 6 weeks old SD rats; SD rats, 30 or 100 mg/kg oral) is reported as “enhance the excretion of uric acid”. The “systolic blood pressure level, Day 1” value [1] was 206 ± 2, the “systolic blood pressure level, Day 7” value [1] was 190 ± 3 and the “systolic blood pressure level, Day 14” value [1] was 190 ± 1. The “systolic blood pressure level, Day 28” value [1] was 189 ± 1, the “Serum cholesterol level, the last day during administration” value ([2]; 12 patients with co-administered hypolipidemic drugs, before drug administration 250.25 ± 45.16) was 214.58 ± 37.31 mg/dL and the “Serum cholesterol level, difference” value ([2]; 12 patients with co-administered hypolipidemic drugs, paired t-test P < 0.05) was -35.67 ± 41.49 mg/dL. For the same compound, the “Serum cholesterol level, the last day during administration” value ([2]; 95 patients without co-administered drug, before drug administration 206.28 ± 39.81) was 197.66 ± 40.33 mg/dL, the “Serum cholesterol level, difference” value ([2]; 95 patients without co-administered drug, paired t-test P < 0.01) was -8.62 ± 26.60 mg/dL and the “Serum cholesterol level, the last day during administration” value ([2]; all 107 patients, 40 to 160 mg/day, before drug administration 211.2 ± 42.6) was 199.6 ± 40.2 mg/dL. The “Serum cholesterol level, difference” value ([2]; all 107 patients, 40 to 160 mg/day, paired t-test P < 0.0001) was -11.7 ± 29.7 mg/dL, the “Serum uric acid level, the last day during administration” value ([3]; before drug administration 8.0 ± 1.1) was 7.4 ± 1.0 mg/dL and the “Serum uric acid level, difference” value ([3]; last day during administration versus before drug administration) was -0.7 ± 1.3 mg/dL.
